Assay results as given in patent US20230116972A1, “CD38 MODULATORS AND METHODS OF USE THEREOF” (Cytokinetics, Inc., priority 2021, published 2023).

Experiments:
mouse CD38 = target: T1, mouse CD38 (Mus musculus, UniProt P56528); assay: mouse recombinant CD38 enzyme assay (hydrolysis of NAD+); type: biochemical; conditions: read-out: mCD38 BioChem IC50
T1 sequence (P56528 1-304): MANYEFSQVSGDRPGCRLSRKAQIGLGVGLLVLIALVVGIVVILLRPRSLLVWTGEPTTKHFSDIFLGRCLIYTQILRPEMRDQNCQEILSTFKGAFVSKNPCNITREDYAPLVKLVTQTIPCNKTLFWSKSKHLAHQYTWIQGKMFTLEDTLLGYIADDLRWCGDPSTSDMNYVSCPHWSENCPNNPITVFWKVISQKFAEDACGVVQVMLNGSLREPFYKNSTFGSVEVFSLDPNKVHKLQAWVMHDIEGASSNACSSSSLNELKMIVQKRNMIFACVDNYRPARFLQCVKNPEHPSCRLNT
Method in brief: (§1)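 Steps: compound and recombinant enzyme are mixed, NAD+ is added, and the reaction runs 60 min at room temperature. An ADH/ethanol mix containing a CD38 inhibitor halts hydrolysis and forms NADH. After NaOH quench, resazurin plus diaphorase produce fluorescent resorufin, read at 540/590 nm.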

human CD38 = target: T2, human CD38 (Homo sapiens, UniProt P28907); assay: human recombinant CD38 enzyme assay (hydrolysis of NAD+); type: biochemical; conditions: human recombinant CD38, 0.4 nM enzyme, 62.5 μM NAD+; read-out: hCD38 BioChem IC50
T2 sequence (P28907 1-300): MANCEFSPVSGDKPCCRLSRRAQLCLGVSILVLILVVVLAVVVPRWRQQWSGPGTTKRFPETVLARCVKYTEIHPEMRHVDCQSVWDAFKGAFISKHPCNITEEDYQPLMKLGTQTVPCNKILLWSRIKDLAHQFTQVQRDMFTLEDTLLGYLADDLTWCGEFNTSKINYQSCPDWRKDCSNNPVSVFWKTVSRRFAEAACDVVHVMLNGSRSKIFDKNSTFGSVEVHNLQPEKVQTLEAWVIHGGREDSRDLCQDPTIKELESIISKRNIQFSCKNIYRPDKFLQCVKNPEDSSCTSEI
Method in brief: as §1

[1] = target: T3, endogenous CD38 in HL60 cells (Homo sapiens, UniProt P28907); assay: cellular CD38 assay in HL60 cells (cellular NAD levels); type: cell-based; conditions: all-trans retinoic acid, 24 hours, read-out: hCD38 HL60 ATRA NAD Cell Diaphorase IC50
T3 construct: endogenous in cells; host or cells: HL60 (leukemic cells, treated with all-trans retinoic acid)
T3 sequence (P28907 1-300): T2 sequence (P28907 1-300)
Experimental: The compounds described herein were also assayed for their ability to inhibit the endogenous CD38 in a native cellular environment in the cellular CD38 assay, which measures the ability of the compound to modulate cellular NAD levels. […] The assays were initiated by plating 20 μL of HL60 cells in culture medium, at a density of 20000 cells per well to a 384-well Corning™ Multiwell Plates. Compounds in DMSO were added to the plates in a volume of 120 nL using the Labcyte Echo Liquid Handlers. […] The plates are then incubated for 24 hours. 50 μL of a readout-solution containing 0.2 U/mL Diaphorase enzyme, 40 uM resazurin, 10 uM FMN, 0.8 U/mL Alcohol dehydrogenase, 3% ethanol, 0.4 mg/mL bovine serum albumin, 0.2% Triton X-100 in 100 mM Tris-HCl, 30 mM EDTA, pH 8.4. The plates were read for fluorescence (Excitation/Emission=540 nm/590 nm) using an EnVision plate reader after 60 mins of incubation at ambient temperature. Note that, in Table 5, the “Compound No” corresponds to the compound numbers in Table 1.

IC50 (mouse CD38)	IC50 (human CD38)	IC50 [1]	SMILES
14.4 nM	16.7 nM	2050 nM	Cn1cncc1-c1ccnc(C(=O)N[C@H]2C[C@H](c3cccc(F)c3)C2)n1 [Compound 241, N-((1r,3r)-3-(3-fluorophenyl)cyclobutyl)-4-(1-methyl-1H-imidazol-5-yl)pyrimidine-2-carboxamide]
24 nM	80 nM	1670 nM	Cn1cncc1-c1cncc(C(=O)NC2CC3(C2)CC(F)(F)C3)n1 [Compound 105, N-(6,6-difluorospiro[3.3]heptan-2-yl)-6-(1-methyl-1H-imidazol-5-yl)pyrazine-2-carboxamide]
1 nM	4 nM	350 nM	Cc1cc(C(=O)Nc2ccc(C(F)(F)F)nc2)nc(-n2ccnc2)n1 [Compound 117, 2-(1H-imidazol-1-yl)-6-methyl-N-(6-(trifluoromethyl)pyridin-3-yl)pyrimidine-4-carboxamide]
4 nM	6 nM	298 nM	O=C(Nc1ccnc(C(F)F)c1)c1cccc(-n2ccnc2)n1 [Compound 39, N-(2-(difluoromethyl)pyridin-4-yl)-6-(1H-imidazol-1-yl)picolinamide]
9 nM	72.2 nM	10200 nM	COCCO[C@H]1CC[C@H](NC(=O)c2nc(OC)cc(-c3cncn3C)n2)CC1 [Compound 231, 4-methoxy-N-((1r,4r)-4-(2-methoxyethoxy)cyclohexyl)-6-(1-methyl-1H-imidazol-5-yl)pyrimidine-2-carboxamide]
1.6 nM	15.7 nM	2120 nM	Cn1cncc1-c1nc(C(=O)N[C@H]2CC[C@H](NCC(F)(F)F)CC2)cc(C2CCOCC2)n1 [Compound 300, 2-(1-methyl-1H-imidazol-5-yl)-6-(tetrahydro-2H-pyran-4-yl)-N-((1r,4r)-4-((2,2,2-trifluoroethyl)amino)cyclohexyl) pyrimidine-4-carboxamide]
21.3 nM	28.8 nM	2370 nM	Cn1cncc1-c1ccnc(C(=O)N[C@H]2C[C@H](c3ccc(F)cc3)C2)n1 [Compound 242, N-((1r,3r)-3-(4-fluorophenyl)cyclobutyl)-4-(1-methyl-1H-imidazol-5-yl)pyrimidine-2-carboxamide]
9 nM	22 nM	1800 nM	COC(=O)[C@H]1CC[C@H](NC(=O)c2ccnc(-n3ccnc3)n2)CC1 [Compound 106, methyl (1r,4r)-4-(2-(1H-imidazol-1-yl)pyrimidine-4-carboxamido)cyclohexane-1-carboxylate]
19.7 nM	36.4 nM	1970 nM	COc1ccc([C@H]2C[C@H](NC(=O)c3nccc(-n4ccnc4)n3)C2)cc1 [Compound 217, 4-(1H-imidazol-1-yl)-N-((1r,3r)-3-(4-methoxyphenyl)cyclobutyl)pyrimidine-2-carboxamide]
358 nM	243 nM	2000 nM	O=C(Nc1cccnc1)c1cc(-n2ccnc2)ccn1 [Compound 1, 4-(1H-imidazol-1-yl)-N-(pyridin-3-yl)picolinamide]
2 nM	2 nM	335 nM	COc1cc(C(=O)Nc2ccc(C(F)F)nc2)nc(-n2ccnc2)n1 [Compound 127, N-(6-(difluoromethyl)pyridin-3-yl)-2-(1H-imidazol-1-yl)-6-methoxypyrimidine-4-carboxamide]
139 nM	233 nM	14400 nM	O=C(N[C@H]1CCN(c2ccccc2)C1)c1nccc(-n2ccnc2)n1 [Compound 247, (S)-4-(1H-imidazol-1-yl)-N-(1-phenylpyrrolidin-3-yl)pyrimidine-2-carboxamide]
58.7 nM	207 nM	5110 nM	CC(C)(O)[C@H]1CC[C@H](NC(=O)c2nccc(-n3ccnc3)n2)CC1 [Compound 251, N-((1r,4r)-4-(2-hydroxypropan-2-yl)cyclohexyl)-4-(1H-imidazol-1-yl)pyrimidine-2-carboxamide]
16 nM	79 nM	1110 nM	O=C(NC1CC2(C1)CC(F)(F)C2)c1ccnc(-n2ccnc2)n1 [Compound 78, N-(6,6-difluorospiro[3.3]heptan-2-yl)-2-(1H-imidazol-1-yl)pyrimidine-4-carboxamide]
2 nM	9 nM	1290 nM	COC(=O)[C@H]1CC[C@H](NC(=O)c2ccnc(-c3cncn3C)n2)CC1 [Compound 107, methyl (1r,4r)-4-(2-(1-methyl-1H-imidazol-5-yl)pyrimidine-4-carboxamido)cyclohexane-1-carboxylate]
1 nM	10 nM	952 nM	Cc1cc(C(=O)N[C@H]2CC[C@H](C)CC2)nc(-c2cncn2C)n1 [Compound 123, 6-methyl-2-(1-methyl-1H-imidazol-5-yl)-N-((1r,4r)-4-methylcyclohexyl)pyrimidine-4-carboxamide]
5.5 nM	46.1 nM	3760 nM	COc1cc(-c2cncn2C)nc(C(=O)N[C@H]2CC[C@H](OC)CC2)n1 [Compound 192, 4-Methoxy-N-((1r,4r)-4-methoxycyclohexyl)-6-(1-methyl-1H-imidazol-5-yl)pyrimidine-2-carboxamide]
1.8 nM	13.7 nM	2280 nM	CO[C@H]1CC[C@H](NC(=O)c2cc([C@H]3CC[C@@H](OC)CC3)nc(-c3cncn3C)n2)CC1 [Compound 315, N-((1r,4R)-4-methoxycyclohexyl)-6-((1s,4S)-4-methoxycyclohexyl)-2-(1-methyl-1H-imidazol-5-yl)pyrimidine-4-carboxamide]
10 nM	3 nM	349 nM	Cn1cncc1-c1ccnc(C(=O)Nc2ccc(C(F)(F)F)nc2)n1 [Compound 74, 4-(1-methyl-1H-imidazol-5-yl)-N-(6-(trifluoromethyl)pyridin-3-yl)pyrimidine-2-carboxamide]
335 nM	330 nM	6460 nM	CC(C)(O)c1cc(C(=O)Nc2ccc(C(F)(F)F)nc2)nc(-n2ccnc2)n1 [Compound 175, 6-(2-hydroxypropan-2-yl)-2-(1H-imidazol-1-yl)-N-(6-(trifluoromethyl)pyridin-3-yl)pyrimidine-4-carboxamide]
2 nM	25 nM	3130 nM	Cn1cncc1-c1nc(C(=O)N[C@H]2CC[C@H](C)CC2)cc(C(F)(F)F)n1 [Compound 153, 2-(1-methyl-1H-imidazol-5-yl)-N-((1r,4r)-4-methylcyclohexyl)-6-(trifluoromethyl)pyrimidine-4-carboxamide]
270 nM	252 nM	12500 nM	O=C(NC1CCN(c2ccccc2)CC1)c1nccc(-n2ccnc2)n1 [Compound 263, 4-(1H-imidazol-1-yl)-N-(1-phenylpiperidin-4-yl)pyrimidine-2-carboxamide]
64 nM	448 nM	10400 nM	Cc1ncccc1NC(=O)c1cccc(-n2ccnc2)n1 [Compound 27, 6-(1H-imidazol-1-yl)-N-(2-methylpyridin-3-yl)picolinamide]
36.4 nM	71.6 nM	5580 nM	CCO[C@H]1CC[C@H](NC(=O)c2nccc(-n3ccnc3)n2)CC1 [Compound 258, N-((1r,4r)-4-ethoxycyclohexyl)-4-(1H-imidazol-1-yl)pyrimidine-2-carboxamide]
163 nM	404 nM	5910 nM	O=C(NC1CCOC1)c1cccc(-n2ccnc2)n1 (stereo not drawn) [Compound 63, 6-(1H-imidazol-1-yl)-N-(tetrahydrofuran-3-yl)picolinamide]
8 nM	9 nM	903 nM	O=C(Nc1ccc(C(F)(F)F)nc1)c1nc(-n2ccnc2)ccc1F [Compound 42, 3-fluoro-6-(1H-imidazol-1-yl)-N-(6-(trifluoromethyl)pyridin-3-yl)picolinamide]
